The test system of the assay is MCH receptors. Put plainly: MCH receptor activity class (method not given).
[1] abbreviates: class by percent of control at 10^-7 M or IC50.
Where [2] appears, read: activity class per percent of control at 10^-7 M or IC50.
[3] abbreviates: class by percent of control at 10^−7 M or IC50.
Where [4] appears, read: class 1-3 by percent of control at 10^-7 M or IC50.

Where two headings read alike, the source gives them in different places.

These results are taken from patent publication US20050197350A1, “Novel quinoline, tetrahydroquinazoline, and pyrimidine derivatives and methods of treatment related to the use thereof” (TAISHO PHARMACEUTICAL CO., LTD., priority 2003, published 2005).

For `Cc1onc(-c2c(Cl)cccc2Cl)c1C(=O)N[C@H]1CC[C@@H](Nc2nccc(N(C)C)n2)CC1` [compound 352, 3-(2,6-dichlorophenyl)-N-(cis-4-{[4-(dimethylamino)pyrimidin-2-yl]amino}cyclohexyl)-5-methylisoxazole-4-carboxamide], the class under setting [1] is recorded as 1 (Class 1: The value of percent of control at 10^−7 M was less than 40% or the value of IC50 was less than 50 nM.).

Turning to `CN(C)c1ccnc(N[C@H]2CC[C@@H](NC(=O)c3cccc(Br)c3)CC2)n1` [compound 239], the class under setting [1] is on record as 1 (Class 1: The value of percent of control at 10^−7 M was less than 40% or the value of IC50 was less than 50 nM.).

As to `CCCCCCCCOC(=O)NC[C@H]1CC[C@@H](Nc2cc(N(C)C)c3ccccc3n2)CC1` [compound 1566], the class (activity class 1-3: percent of control at 10^-7 M or IC50) is recorded as 3 (Class 3 The value of percent of control at 10^−7 M was more than 60% or the value of IC50 was more than 200 nM.).

For `Cc1c(C(=O)N[C@H]2CC[C@@H](Nc3nc4c(c(N(C)C)n3)CCCC4)CC2)cc(-c2ccccc2)n1CCSCc1c(F)cccc1Cl` [compound 1028, 1-{2-[(2-chloro-6-fluorobenzyl)thio]ethyl}-N-(cis-4-{[4-(dimethy-lamino)-5,6,7,8-tetrahydroquinazolin-2-yl]amino}-cyclohexyl)-2-methyl-5-phenyl-1H-pyrrole-3-carboxamide], the class under setting [2] was 2 (Class 2: The value of percent of control at 10^−7 M was from 40% to 60% or the value of IC′50 was from 50 nM to 200 nM.).

For `Cc1cccc(C(C)(C)C)c1NC(=O)NC[C@H]1CC[C@@H](Nc2nc3c(c(N(C)C)n2)CCCC3)CC1` [compound 2475, N-(2-tert-butyl-6-methylphenyl)-N′-[(cis-4-{[4-(dimethylamino)-5,6,7,8-tetrahydroquinazolin-2-yl]amino}cyclohexyl)methyl]urea], the class (MCH receptor activity class 1-3 (percent of control at 10^-7 M or IC50)) was 1 (Class 1: The value of percent of control at 10^−7 M was less than 40% or the value of IC50 was less than 50 nM.).

In the case of `Cc1cnc(N[C@H]2CC[C@@H](C(=O)N[C@H](C)c3ccc([N+](=O)[O-])cc3)CC2)nc1N(C)C` [compound 2780, cis-4-{[4-(dimethylamino)-5-methylpyrimidin-2-yl]amino}-N-[(1R)-1-(4-nitrophenyl)ethyl]cyclohexanecarboxamide], the class under setting [3] is recorded as 1 (Class 1: The value of percent of control at 10^−7 M was less than 40% or the value of IC50 was less than 50 nM.).

Regarding `COc1ccc2ccccc2c1CN[C@H]1CC[C@@H](Nc2nc3c(c(N(C)C)n2)CCCC3)CC1` [compound 1332], under setting [1], the class is recorded as 3 (Class 3 The value of percent of control at 10^−7 M was more than 60% or the value of IC50 was more than 200 nM.).

For `Cc1ccc([N+](=O)[O-])c(NC(=O)NC[C@H]2CC[C@@H](Nc3nc4c(c(N(C)C)n3)CCCC4)CC2)c1C` [compound 2489], the class under setting [1] is 2 (Class 2: The value of percent of control at 10^−7 M was from 40% to 60% or the value of IC′50 was from 50 nM to 200 nM.).

Turning to `CN(C)c1ccnc(N[C@H]2CC[C@@H](CNCc3cc(C(F)(F)F)ccc3F)CC2)n1` [compound 1274], the class under setting [1] is on record as 3 (Class 3 The value of percent of control at 10^−7 M was more than 60% or the value of IC50 was more than 200 nM.).

`CCc1cccc(CC)c1NC(=O)N[C@H]1CC[C@@H](Nc2cc(N(C)C)c3ccccc3n2)CC1` [compound 2102]: under setting [1], the class is recorded as 1 (Class 1: The value of percent of control at 10^−7 M was less than 40% or the value of IC50 was less than 50 nM.).

As to `CN(C)c1ccnc(N[C@H]2CC[C@@H](CNC(=O)c3cc(F)c(Cl)cc3Cl)CC2)n1` [compound 384], under setting [1], the class was 2 (Class 2: The value of percent of control at 10^−7 M was from 40% to 60% or the value of IC′50 was from 50 nM to 200 nM.).

`CN(C)c1ccnc(N[C@H]2CC[C@@H](CNC(=O)c3ccccc3I)CC2)n1` [compound 440]: under setting [4], the class was 3 (Class 3 The value of percent of control at 10^−7 M was more than 60% or the value of IC50 was more than 200 nM.).

Turning to `Cc1ccccc1C(=O)NC[C@H]1CC[C@@H](Nc2nccc(N(C)C)n2)CC1` [compound 441], the class under setting [4] is listed as 3 (Class 3 The value of percent of control at 10^−7 M was more than 60% or the value of IC50 was more than 200 nM.).

For the molecule `CN(C)c1nc(N[C@H]2CC[C@@H](NC(=O)C3=Cc4cc(Cl)ccc4OC3)CC2)nc2c1CCCC2` [compound 578], the class under setting [4] is 3 (Class 3 The value of percent of control at 10^−7 M was more than 60% or the value of IC50 was more than 200 nM.).

`CN(C)c1nc(N[C@H]2CC[C@@H](NC(=O)Cc3cc(C(C)(C)C)c(O)c(C(C)(C)C)c3)CC2)nc2c1CCCC2` [compound 979]: the class under setting [2] is listed as 3 (Class 3 The value of percent of control at 10^−7 M was more than 60% or the value of IC50 was more than 200 nM.).

With `COc1cc(OC)c(NC(=O)N[C@H]2CC[C@@H](Nc3nc4c(c(N(C)C)n3)CCCC4)CC2)cc1Cl` [compound 1727], the class under setting [1] is 1 (Class 1: The value of percent of control at 10^−7 M was less than 40% or the value of IC50 was less than 50 nM.).

With `CCn1c2ccccc2c2cc(CNC[C@H]3CC[C@@H](Nc4nccc(N(C)C)n4)CC3)ccc21` [compound 1273], under setting [1], the class is listed as 1 (Class 1: The value of percent of control at 10^−7 M was less than 40% or the value of IC50 was less than 50 nM.).

On to `CN(C)c1ccnc(N[C@H]2CC[C@@H](NC(=O)c3cccs3)CC2)n1` [compound 270], for which the class under setting [1] is recorded as 3 (Class 3 The value of percent of control at 10^−7 M was more than 60% or the value of IC50 was more than 200 nM.).

In the case of `Cc1cc(N(C)C)nc(N[C@H]2CC[C@@H](NC(=O)c3cccc(OC(C)C)c3)CC2)n1` [compound 2977, N-(cis-4-{[4-(dimethylamino)-6-methylpyrimidin-2-yl]amino}cyclohexyl)-3-isopropoxybenzamide], under setting [3], the class is recorded as 1 (Class 1: The value of percent of control at 10^−7 M was less than 40% or the value of IC50 was less than 50 nM.).

For `CCc1cccc(C)c1NC(=O)N[C@H]1CC[C@@H](Nc2cc(N(C)C)c3ccccc3n2)CC1` [compound 2092, N-(cis-4-{[4-(dimethylamino)quinolin-2-yl]amino}cyclohexyl)-N′-(2-ethyl-6-methylphenyl)urea], under setting [1], the class is reported as 2 (Class 2: The value of percent of control at 10^−7 M was from 40% to 60% or the value of IC′50 was from 50 nM to 200 nM.).

As for `Cc1cccc(OCC(=O)N[C@H]2CC[C@@H](Nc3cc(C)c4ccccc4n3)CC2)c1` [Example 2556, 2-(3-methylphenoxy)-N-{cis-4-[(4-methylquinolin-2-yl)amino]cyclohexyl}acetamide], the class is on record as 1.

Turning to `CN(C)c1nc(N[C@H]2CC[C@@H](NCc3c[nH]c4ccc(Br)cc34)CC2)nc2c1CCCC2` [compound 1334], under setting [1], the class is listed as 3 (Class 3 The value of percent of control at 10^−7 M was more than 60% or the value of IC50 was more than 200 nM.).

As for `Cc1ccc(C(=O)CC(C(=O)N[C@H]2CC[C@@H](Nc3nc4c(c(N(C)C)n3)CCCC4)CC2)c2cn(C)c3ccccc23)cc1` (relative stereo) [compound 998], the class under setting [2] is listed as 2 (Class 2: The value of percent of control at 10^−7 M was from 40% to 60% or the value of IC′50 was from 50 nM to 200 nM.).

As for `CN(C)c1cc(N[C@H]2CC[C@@H](NC(=S)Nc3ccc(I)cc3)CC2)nc2ccccc12` [compound 2272], the class under setting [1] is on record as 3 (Class 3 The value of percent of control at 10^−7 M was more than 60% or the value of IC50 was more than 200 nM.).

Regarding `Cc1cccc(CNC(=O)N[C@H]2CC[C@@H](Nc3nc4c(c(N(C)C)n3)CCCC4)CC2)c1` [compound 1836], the class under setting [1] is reported as 3 (Class 3 The value of percent of control at 10^−7 M was more than 60% or the value of IC50 was more than 200 nM.).

As to `CN(C)c1cc(N[C@H]2CC[C@@H](CNCc3ccc(N(C)C)c4ccccc34)CC2)nc2ccccc12` [compound 1160], the class under setting [1] was 3 (Class 3 The value of percent of control at 10^−7 M was more than 60% or the value of IC50 was more than 200 nM.).

For the molecule `CN(C)c1nc(N[C@H]2CC[C@@H](CNCCCCCCc3ccccc3)CC2)nc2c1CCCC2` [compound 1500], the class under setting [1] is listed as 3 (Class 3 The value of percent of control at 10^−7 M was more than 60% or the value of IC50 was more than 200 nM.).

For `Cc1nn(-c2ccccc2)nc1C(=O)N[C@H]1CC[C@@H](Nc2nc3c(c(N(C)C)n2)CCCC3)CC1` [compound 543], the class under setting [4] is 2 (Class 2: The value of percent of control at 10^−7 M was from 40% to 60% or the value of IC′50 was from 50 nM to 200 nM.).

Turning to `COc1ccc(NC(=O)N[C@H]2CC[C@@H](Nc3nccc(N(C)C)n3)CC2)cc1OC` [compound 2240], under setting [1], the class was 3 (Class 3 The value of percent of control at 10^−7 M was more than 60% or the value of IC50 was more than 200 nM.).

Regarding `Cc1c(C(=O)N[C@H]2CC[C@@H](Nc3nccc(N(C)C)n3)CC2)cc(-c2ccccc2)n1-c1ccccc1` [compound 890, N-(cis-4-{[4-(dimethylamino)pyrimidin-2-yl]amino}cyclohexyl)-2-methyl-1,5-diphenyl-1H-pyrrole-3-carboxamide], under setting [1], the class is on record as 1 (Class 1: The value of percent of control at 10^−7 M was less than 40% or the value of IC50 was less than 50 nM.).

As to `Cc1nc(N[C@H]2CC[C@@H](NC(=O)c3cccc(C#N)c3)CC2)nc(N(C)C)c1C` [compound 2836, 3-cyano-N-(cis-4-{[4-(dimethylamino)-5,6-dimethylpyrimidin-2-yl]amino}cyclohexyl)benzamide], the class under setting [3] is reported as 1 (Class 1: The value of percent of control at 10^−7 M was less than 40% or the value of IC50 was less than 50 nM.).

Take `Cc1cnc(N[C@H]2CC[C@@H](NC(=O)N(C)c3cccc(Cl)c3)CC2)nc1N(C)C` [compound 3021, N-(3-chlorophenyl)-N′-(cis-4-{[4-(dimethylamino)-5-methylpyrimidin-2-yl]amino}cyclohexyl)-N-methylurea]: the class under setting [3] is recorded as 1 (Class 1: The value of percent of control at 10^−7 M was less than 40% or the value of IC50 was less than 50 nM.).

On to `Cc1cnc(NC[C@H]2CC[C@@H](NC(=O)c3ccc(F)c(F)c3)CC2)nc1N(C)C` [compound 2714], for which the class under setting [3] is 3 (Class 3 The value of percent of control at 10^−7 M was more than 60% or the value of IC50 was more than 200 nM.).
